Source: PubChem BioAssay (NCI)
Where “and” joins values, the source holds several entries; their conditions need not be identical. Identical values can stand only once.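 Results reflect a 48-hour exposure of cells in 96-well plates to compound at five concentrations. At the GI50, growth is halved. Definition used: TGI = concentration required for complete inhibition of growth.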

Columns and labels:
Assay in all cases: NCI anticancer screen, dose series, 48 h
A549 NSCLC = system: A549 NSCLC
MDA-N = system: MDA-N
DU-145 prostate = system: DU-145 prostate
LOX IMVI melanoma = system: LOX IMVI melanoma
CAKI-1 renal = system: CAKI-1 renal
HCT-15 colon = system: HCT-15 colon
HT29 colon = system: HT29 colon
IGROV1 ovarian = system: IGROV1 ovarian
MOLT-4 leukemia = system: MOLT-4 leukemia
NCI-H460 lung = system: NCI-H460 lung

SMILES	TGI (A549 NSCLC)	TGI (MDA-N)	TGI (DU-145 prostate)	TGI (LOX IMVI melanoma)	TGI (CAKI-1 renal)	TGI (HCT-15 colon)	TGI (HT29 colon)	TGI (IGROV1 ovarian)	TGI (MOLT-4 leukemia)	TGI (NCI-H460 lung)	GI50 (MOLT-4 leukemia)
O=C1/C(=C/c2ccccc2S)N=C(c2ccccc2)N1c1nc2ccc(Sc3ccccc3)cc2[nH]1	> 100 µM	34.4 µM	> 100 µM	> 100 µM	> 100 µM	> 100 µM	43.1 µM	> 100 µM	> 100 µM	57 µM	–
Cc1ccccc1OC(C)C(=O)NN1C(=O)CC(=O)N(c2ccc(Cl)cc2)C1=S (stereo unspecified)	> 100 µM	> 100 µM	> 100 µM	> 100 µM	> 100 µM	> 100 µM	> 100 µM	> 100 µM	> 100 µM	> 100 µM	–
O=C(Nc1cccc2cnccc12)c1cc2c(cc1Cl)Sc1nccn1S2(=O)=O	> 100 µM	23.7 µM	55.9 µM	31.8 µM	91.5 µM	27.8 µM	48.3 µM	45.8 µM	59.4 µM	24.1 µM	–
c1ccc2c(c1)[nH]c1nc3cc(-c4ccc5nc6c(nc5c4)[nH]c4ccccc46)ccc3nc12	> 100 µM	> 100 µM	> 100 µM	> 100 µM	> 100 µM	> 32.3 µM	> 100 µM	> 100 µM	> 100 µM	> 100 µM	–
COc1ccc(N[C@H](CSc2ccc(C)cc2)c2ccc(F)cc2)cc1	> 100 µM	> 100 µM	> 100 µM	> 100 µM	> 100 µM	> 100 µM	> 100 µM	> 100 µM	> 100 µM	> 100 µM	–
C[n+]1c(-c2ccccc2)cc2/c(=C\c3ccc([N+](=O)[O-])cc3)c3ccccc3n21	> 100 µM	21.8 µM	35.3 µM	17.6 µM	> 100 µM	> 100 µM	> 32.6 µM	9.53 µM	> 30.8 µM	> 100 µM	–
C=C1C(=O)OC2/C=C(\CO)C(OC(C)=O)CC(O)/C(C)=C/C(OC(=O)C(C)CC)C12 (stereo unspecified)	> 100 µM	33.4 µM	43.8 µM	29.3 µM and 38.3 µM	73.3 µM and 50.5 µM	> 100 µM	46.6 µM and 35.5 µM	> 100 µM	28.2 µM and 64.3 µM	63.6 µM and > 100 µM	11 µM and 22.6 µM
O=C1NCCCc2nonc21	> 100 µM	> 100 µM	> 100 µM	> 100 µM	> 100 µM	> 100 µM	> 100 µM	> 100 µM	> 100 µM	> 100 µM	–
CSCCC(NCc1c(O)ccc2c(-c3ccccc3)cc(=O)oc12)C(=O)O (stereo unspecified)	> 100 µM	> 100 µM	> 100 µM	> 100 µM	> 100 µM	> 100 µM	> 100 µM	> 100 µM	> 100 µM	> 100 µM	–
O=C1CCSSCCC(=O)NCCN1	> 100 µM	> 100 µM	> 100 µM	> 100 µM	> 100 µM	> 100 µM	> 100 µM	> 100 µM	> 100 µM	> 100 µM	–
CC(=O)OC(C)c1cc2c(s1)C(=O)c1sccc1C2=O (stereo unspecified)	5.29 µM	0.0338 µM	0.56 µM	> 100 µM	8.23 µM	2.38 µM	6.18 µM	4.19 µM	> 23.6 µM	2.36 µM	–
C=C1[C@@H](O)C[C@@]23CC[C@@H]4[C@@]5(C)CC[C@@H](OC(C)=O)C(C)(C)[C@@H]5C[C@@H](OC5OC(COC(C)=O)C(O)C(O)C5O)[C@@]4(C)C2=CC[C@H]3[C@H]1C (stereo partly specified)	16.8 µM	17.5 µM	22.6 µM	10.9 µM	26.7 µM	27.8 µM	4.75 µM	15 µM	8.32 µM	17.2 µM	–
N#Cc1nc(-c2cc([N+](=O)[O-])cc([N+](=O)[O-])c2)oc1N	> 10 µM	> 10 µM	> 10 µM	> 10 µM	> 10 µM	> 10 µM	> 10 µM	> 10 µM	> 10 µM	> 10 µM	–
Nc1nn2c(C(Br)Br)cc(C(Br)Br)nc2c1[N+](=O)[O-]	20.1 µM	2.26 µM	3.46 µM	0.799 µM	0.954 µM	2.34 µM	3.28 µM	3.38 µM	1.21 µM	7.5 µM	–
CCOC1CC(=O)c2c(Br)sc(Br)c21 (stereo unspecified)	95.1 µM	49.6 µM	32.5 µM	42.2 µM	31 µM	41.9 µM	44 µM	31 µM	35.1 µM	43.1 µM	–
COP(=O)(O)/C=C/C(NC(=O)C(Cl)(Cl)Cl)c1ccccc1 (stereo unspecified)	> 100 µM	> 100 µM	> 100 µM	> 100 µM	> 100 µM	> 100 µM	> 100 µM	> 100 µM	> 100 µM	> 100 µM	–
Cc1cc(C)c2c(=O)n(CN3CC4Nc5ccccc5C4C3)sc2n1 (stereo unspecified)	> 100 µM	44.3 µM	40.9 µM	48.5 µM	57.6 µM	44.3 µM	46.1 µM	> 100 µM	95.3 µM	46.2 µM	–
COC(=O)c1ccccc1/C=C1/Cc2ccccc2C1=O	> 100 µM	> 100 µM	> 100 µM	39.9 µM	> 100 µM	58.6 µM	> 100 µM	88.7 µM	78.5 µM	> 100 µM	–
CC1(C)O[C@@H]2COC(=O)[C@@H]2O1	> 100 µM	> 100 µM	> 100 µM	> 100 µM	> 100 µM	> 100 µM	> 100 µM	> 100 µM	> 100 µM	> 100 µM	–
Cc1cc2c(C)cc(=O)[nH]c2cc1N	> 100 µM	> 100 µM	> 100 µM	> 100 µM	> 100 µM	> 100 µM	> 100 µM	> 100 µM	> 100 µM	> 100 µM	–
Cc1cc(-c2nc3c(O)cccc3s2)ccc1N	47.9 µM	76.9 µM	> 100 µM	40.1 µM	56.1 µM	79 µM	53.3 µM	53.8 µM	> 100 µM	> 100 µM	–
O=C(NC(Cc1c[nH]c2ccccc12)C(=O)O)/C(=C/c1ccccc1O)NC(=O)c1ccccc1 (stereo unspecified)	> 100 µM	> 100 µM	> 100 µM	> 100 µM	36.9 µM	> 100 µM	> 100 µM	> 100 µM	> 100 µM	> 100 µM	–
CC(C)=C[C@@H]1C[C@H](n2cc(C)c(=O)[nH]c2=O)ON1CCO	> 100 µM	> 100 µM	> 100 µM	> 100 µM	> 100 µM	> 100 µM	> 100 µM	> 100 µM	> 100 µM	> 100 µM	–
CCOC(=O)c1[nH]cc(C)c1-c1ccn(-c2ccccc2)c1	> 100 µM	> 100 µM	> 100 µM	> 100 µM	> 100 µM	> 100 µM	> 100 µM	55.9 µM	65.2 µM	> 100 µM	–
CCC1=CCC23C(=O)C=CC(=O)C2(C1)C(=O)c1cccc(OC)c1C3=O (stereo unspecified)	51.5 µM	35.7 µM	32.2 µM	29.9 µM	26.1 µM	37 µM	55.8 µM	26.9 µM	17.4 µM	62.5 µM	–
O=C1c2ccccc2CN1c1ccc(O)cc1	> 100 µM	> 100 µM	> 100 µM	> 100 µM	> 100 µM	> 100 µM	> 100 µM	> 100 µM	> 100 µM	> 100 µM	–
Nc1c2ccccc2nc2c1ccc1ncccc12	> 100 µM	74.7 µM	> 100 µM	53.5 µM	92.1 µM	> 100 µM	> 100 µM	> 100 µM	> 100 µM	47.4 µM	–
CC(=O)OC[C@]1(C(=O)C(O)c2ccoc2)[C@H](C)CC[C@@]23COC(=O)C2=CCC[C@@H]31 (stereo partly specified)	> 10 µM	> 10 µM	> 10 µM	> 10 µM	> 10 µM	> 10 µM	> 10 µM	> 10 µM	> 10 µM	> 10 µM	–
CC(=O)NS(=O)(=O)c1ccc(NC(=O)c2c3ccccc3nc3ccccc23)cc1	> 100 µM	> 100 µM	> 100 µM	> 100 µM	> 100 µM	> 100 µM	> 100 µM	> 100 µM	> 100 µM	> 100 µM	–
